The values below come from patent publication US20240024494A1, “SMALL-MOLECULE CONJUGATE AND USE THEREOF” (SHANGHAI MEWSGEN BIOTECHNOLOGY CO., LTD, priority 2020, published 2024).

Molecules are shown by their SMILES. Like-named read-outs stand apart in the source and are kept apart here.

The test system of assay [1] is HCT116 (human colon cancer cells). Description: Tumor cell proliferation inhibition test, CCK-8 method (Example 21). The assay is classed as cell-based. How it is done:
(§1) A part of the compounds prepared in the examples of the present disclosure were subjected to a tumor cell proliferation inhibition test by using a CCK-8 method. Cell lines HCT116 (human colon cancer cells), MGC803 (human gastric cancer cells), and MIA PACA-2 (human pancreatic cancer cells) were purchased from Shanghai Meixuan Technology Co., Ltd. Samples (a part of the compounds prepared in the examples) were dissolved in DMSO (Merck), prepared into a concentration of 10 mM, and finally triply diluted in DMEM or McCoy's 5A 1640 medium to 8 concentration gradients. A cell culture solution was collected when a cell culture met a test requirement, 10 μL of the cell culture solution was uniformly coated on a cell counting plate, cells were counted for 3 times under a microscope, and a cell density was calculated by taking an average value; and a 96-well plate (Corning, #3599) was taken, 200 μL of the cell culture solution was added into each well for cell inoculation at a cell concentration of 6×10^3 cells per well, and the inoculated 96-well plate was incubated in a cell incubator containing 5% CO2 at 37° C. for 24 h. An old culture medium was removed by suction, 200 μL of the triply diluted sample DMEM or McCoy's 5A 1640 medium at an initial concentration of 10 μmol/L was added to each well, the DMSO content was controlled to be 1%, three duplicate wells were set, PBS was used as a blank control, and the plate was incubated in the incubator for 72 h. The original DMEM or McCoy's 5A 1640 medium in the 96-well plate and a PBS buffer in a final row were sucked out, a prepared CCK-8 solution (90% DMEM or McCoy's 5A 1640 medium+10% CCK-8) was added, the mixture was incubated in an incubator, and an absorbance was read by using a Biotek microplate reader. Cell growth inhibition rate IC %=(blank control well OD value−administration well OD value)/blank control well OD value×100%.
Background: Tetrazolium assays rely on reduction of a dye to a coloured formazan, in cell work by metabolically active cells.

Assay [2] has as its system MIA PACA-2 (human pancreatic cancer cells). The assay is described as above. The assay is classed as cell-based. How it is done:
as §1

Assay [3] has as its system MGC803 (human gastric cancer cells). The assay is described as above. The assay is classed as cell-based. How it is done: as §1
The subject of assay [4] is tumor cell strains (colon cancer, pancreatic cancer, esophageal squamous carcinoma, gastric cancer, glioma). The experiment in a line: Summary of in-vitro proliferation inhibition on tumor cell strains (Examples 19-21). The assay is classed as cell-based, human. Here is the method:
as §1, with “A cell line” for “Cell lines”, “carcinoma cells)” for “cancer cells), MGC803 (human gastric cancer cells),”, “SW1990” for “MIA PACA-2”, “carcinoma” for “cancer”
In-vitro activity test: 100 μL of a cell suspension at a concentration of 4-5×10^4/mL was added to each well of a 96-well plate, and placed in a 5% CO2 incubator at 37° C. After 24 h, a sample solution was added at 10 μL/well, double duplicate wells were set, and a reaction was performed at 37° C. with 5% CO2 for 72 h. 20 μL of 5 mg/ml of an MTT solution was added into each well and reacted for 4 h, a dissolving solution was added at 100 μL/well, the mixture was placed in an incubator, and after dissolution, an OD value at 570 nm was measured with a full-wavelength multifunctional microplate reader. An inhibition rate (IR) and a median inhibitory concentration (IC50) were calculated by using an Excel software.
A part of the compounds prepared in the examples of the present disclosure were subjected to a tumor cell proliferation inhibition test by using a CCK-8 method. Cell lines HCT116 (human colon cancer cells), MGC803 (human gastric cancer cells), and MIA PACA-2 (human pancreatic cancer cells) were purchased from Shanghai Meixuan Technology Co., Ltd. Samples (a part of the compounds prepared in the examples) were dissolved in DMSO (Merck), prepared into a concentration of 10 mM, and finally triply diluted in DMEM or McCoy's 5A 1640 medium to 8 concentration gradients. A cell culture solution was collected when a cell culture met a test requirement, 10 μL of the cell culture solution was uniformly coated on a cell counting plate, cells were counted for 3 times under a microscope, and a cell density was calculated by taking an average value; and a 96-well plate (Corning, #3599) was taken, 200 μL of the cell culture solution was added into each well for cell inoculation at a cell concentration of 6×10^3 cells per well, and the inoculated 96-well plate was incubated in a cell incubator containing 5% CO2 at 37° C. for 24 h. […]

Where [5] appears, read: CCK-8, 72 h, Table 3, read-out: IC50 HCT116.
The mark [6] stands for this setting: CCK-8, 72 h, Table 3, read-out: IC50 MIA PACA-2.
Setting [7] is: CCK-8, 72 h, Table 3, read-out: IC50 MGC803.

One may read the IC50 as the midpoint of a concentration-inhibition curve. As to `COc1cc(C(=O)NCCOCCOCCOCCC(=O)N[C@H](C(=O)N[C@@H](CCCNC(N)=O)C(=O)Nc2ccc(COC(=O)N3CCN(C(=O)O[C@H]4CC[C@@]5(C)[C@H](CC[C@@H]6[C@@H]5[C@H](O)C(=O)[C@]5(C)C(c7ccc(=O)oc7)CC[C@]65O)C4)CC3)cc2)C(C)C)ccc1NC(=O)[C@@H]1N[C@@H](CC(C)(C)C)[C@](C#N)(c2ccc(Cl)cc2F)[C@H]1c1cccc(Cl)c1F` (some centres unmarked) [Compound I-2], the IC50 in assay [1] (setting [5]) came out at 26 nM; in assay [2] (setting [6]), 212 nM; in assay [3] (setting [7]), 54 nM. In assay [4], the “Proliferation inhibition activities IC50 on most tumor cell strains (in words)” value (from here on “Proliferation inhibition activities IC50”) is “between several to hundreds of nanomoles”.
Take `COc1cc(C(=O)NCCOCCOCCOCCC(=O)N[C@H](C(=O)N[C@@H](CCCNC(N)=O)C(=O)Nc2ccc(COC(=O)N3CCC(NC(=O)O[C@H]4CC[C@]5(C)C6CC[C@]7(C)[C@@H](c8ccc(=O)oc8)CC[C@]7(O)C6CC[C@@H]5C4)CC3)cc2)C(C)C)ccc1NC(=O)[C@@H]1N[C@@H](CC(C)(C)C)[C@](C#N)(c2ccc(Cl)cc2F)[C@H]1c1cccc(Cl)c1F` (some centres unmarked) [Compound I-5]: the IC50 in assay [1] (setting [5]) was found to be 236 nM; in assay [2] (setting [6]) it was 442 nM; in assay [3] (setting [7]), 116 nM.
On the same counts, the results for `COc1cc(C(=O)NCCOCCOCCOCCOCCOCCOCCC(=O)N[C@@H](C(=O)N[C@@H](CCCNC(N)=O)C(=O)Nc2ccc(COC(=O)N3CCC(NC(=O)O[C@H]4CC[C@]5(C)C6CC[C@]7(C)C(c8ccc(=O)oc8)CC[C@]7(O)C6CC[C@@H]5C4)CC3)cc2)C(C)C)ccc1NC(=O)[C@@H]1N[C@@H](CC(C)(C)C)[C@](C#N)(c2ccc(Cl)cc2F)[C@H]1c1cccc(Cl)c1F` (some centres unmarked) [Compound I-7] are 1290 nM, 3530 nM and 292 nM.
On to `COc1cc(C(=O)NCCOCCOCCOCCOCCOCCOCCC(=O)N[C@@H](C(=O)N[C@@H](CCCNC(N)=O)C(=O)Nc2ccc(COC(=O)N3CCN(C(=O)O[C@H]4CC[C@@]5(C)[C@H](CC[C@@H]6[C@@H]5[C@H](O)C(=O)[C@]5(C)C(c7ccc(=O)oc7)CC[C@]65O)C4)CC3)cc2)C(C)C)ccc1NC(=O)[C@@H]1N[C@@H](CC(C)(C)C)[C@](C#N)(c2ccc(Cl)cc2F)[C@H]1c1cccc(Cl)c1F` (some centres unmarked) [Compound I-8], for which the IC50 was 12 nM in assay [1] (setting [5]), 87 nM in assay [2] (setting [6]) and 12 nM in assay [3] (setting [7]). The “Proliferation inhibition activities IC50” value in assay [4] is “between several to hundreds of nanomoles”.
For `COc1cc(C(=O)NCCOCCOCCOCCOCCC(=O)N[C@H](C(=O)N[C@@H](C)C(=O)Nc2ccc(COC(=O)N3CCN(C(=O)O[C@H]4CC[C@@]5(C)[C@H](CC[C@@H]6[C@@H]5[C@H](O)C(=O)[C@]5(C)[C@@H](c7ccc(=O)oc7)CC[C@]65O)C4)CC3)cc2)C(C)C)ccc1NC(=O)[C@@H]1N[C@@H](CC(C)(C)C)[C@](C#N)(c2ccc(Cl)cc2F)[C@H]1c1cccc(Cl)c1F` [Compound I-10], the IC50 came out at 395 nM in assay [1] (setting [5]), 443 nM in assay [2] (setting [6]) and 307 nM in assay [3] (setting [7]).
On to `COc1cc(C(=O)NCCOCCOCCOCCOCCC(=O)N[C@H](C(=O)N[C@@H](C)C(=O)Nc2ccc(COC(=O)N3CCC(NC(=O)O[C@H]4CC[C@]5(C)C6CC[C@]7(C)[C@@H](c8ccc(=O)oc8)CC[C@]7(O)C6CC[C@@H]5C4)CC3)cc2)C(C)C)ccc1NC(=O)[C@@H]1N[C@@H](CC(C)(C)C)[C@](C#N)(c2ccc(Cl)cc2F)[C@H]1c1cccc(Cl)c1F` (some centres unmarked) [Compound I-11], for which the IC50 in assay [1] (setting [5]) came to 27 nM; in assay [2] (setting [6]) it was 68 nM; in assay [3] (setting [7]) it was 10 nM. Further, the “Proliferation inhibition activities IC50” value in assay [4] is “between several to hundreds of nanomoles”.
As to `COc1cc(C(=O)NCCOCCOCCOCCOCCC(=O)N[C@@H](CCSC)C(=O)N[C@@H](CCCNC(N)=O)C(=O)Nc2ccc(COC(=O)O[C@@H](C(=O)O[C@H]3C[C@@]4(O)[C@@H](OC(=O)c5ccccc5)C5[C@](C)(C(=O)[C@H](OC(C)=O)C(=C3C)C4(C)C)[C@@H](O)C[C@H]3OC[C@@]53OC(C)=O)[C@@H](NC(=O)c3ccccc3)c3ccccc3)cc2)ccc1NC(=O)[C@@H]1N[C@@H](CC(C)(C)C)[C@](C#N)(c2ccc(Cl)cc2F)[C@H]1c1cccc(Cl)c1F` (some centres unmarked) [Compound I-12], the IC50 in assay [1] (72 h) was determined as 5260 nM; in assay [2] (72 h) it was 542 nM; in assay [3] (72 h) it was 626 nM.
As to `COc1cc(C(=O)NCCOCCOCCOCCOCCC(=O)N[C@@H](CCSC)C(=O)N[C@@H](CCCNC(N)=O)C(=O)Nc2ccc(COC(=O)N3CCN(C(=O)O[C@H]4CC[C@@]5(C)[C@H](CC[C@@H]6[C@@H]5[C@H](O)C(=O)[C@]5(C)[C@@H](c7ccc(=O)oc7)CC[C@]65O)C4)CC3)cc2)ccc1NC(=O)[C@@H]1N[C@@H](CC(C)(C)C)[C@](C#N)(c2ccc(Cl)cc2F)[C@H]1c1cccc(Cl)c1F` [Compound I-13], the IC50 was 14 nM in assay [1] (setting [5]), 24 nM in assay [2] (setting [6]) and 14 nM in assay [3] (setting [7]). Besides, the “Proliferation inhibition activities IC50” value in assay [4] was “between several to hundreds of nanomoles”.
In the case of `COc1cc(C(=O)NCCOCCOCCOCCOCCC(=O)N[C@@H](CCSC)C(=O)N[C@@H](CCCNC(N)=O)C(=O)Nc2ccc(COC(=O)N3CCC(NC(=O)O[C@H]4CC[C@]5(C)C6CC[C@]7(C)[C@@H](c8ccc(=O)oc8)CC[C@]7(O)C6CC[C@@H]5C4)CC3)cc2)ccc1NC(=O)[C@@H]1N[C@@H](CC(C)(C)C)[C@](C#N)(c2ccc(Cl)cc2F)[C@H]1c1cccc(Cl)c1F` (some centres unmarked) [Compound I-14], the IC50 in assay [1] (setting [5]) worked out at 483 nM; in assay [2] (setting [6]) it was 670 nM; in assay [3] (setting [7]), 249 nM. Further, in assay [4], the “Proliferation inhibition activities IC50” value is “between several to hundreds of nanomoles”.
